Source: US9567319B2, “Compound having higher inhibitory activity on protein kinase G and preparation method thereof” (Jenkem Technology Co., Ltd., (Tianjin), priority 2014, dated 2017)
Values after ≈ are worked out from the molar mass of the structure shown. Values joined by “and” are separate entries in the source; they are usually repeats but may differ in a detail not shown here. Identical values can stand only once.

Columns and labels:
[1] = tested on: hyperalgesia induced by Freund's complete adjuvant (CFA) in rats; experiment: Weight bearing test, CFA induced hyperalgesia in rats; format: in vivo, SD rats; settings: for Weight Bearing Test Values (Mean ± SD), Baseline: pretreatment, n=8; for Weight Bearing Test Values (Mean ± SD), 15 min: 15 min post treatment; for Weight Bearing Test Values (Mean ± SD), 2 h: 2 h post treatment
Description: Compounds 46 and JK-02A were prepared according to the disclosure of US patent application No. US2008/0176920, and compound JK-02H was prepared according to Example 1. A repeat efficacy study was carried out on the same batch of animals with a single-dose treatment followed by a washing-out period. The 14 days in life studies included two stages: a single low dose treatment assessment on the 7th day and then a single high dose treatment test on the 14th day after CFA injection. On the 7th day after CFA injection, the rats were randomly assigned to respective groups using a computer generated randomization procedure based on the body weight and the baseline values of Von Frey and weight bearing test. Animals received corresponding single dose treatments (vehicle and 3 test articles) on the 7th and 14th days after CFA injection, respectively, and the effect of the test compounds were evaluated. Hyperalgesia of all the study animals was assessed following a single low dose treatment with the test articles on day 7, while a single high dose effect of the test article was evaluated on day 14. The mechanical hyperalgesia and weight bearing were measured on day 7 and day 14 after CFA injection, followed by administration of control or test articles. Von Frey filaments and weight bearing were measured on all the study animals at three time points on day 7, and four time points on day 14. An extra time point assessment was conducted on day 14, considering the strong analgesic effect of the test articles at a higher dose noticed during the test at the 3th time point. Rats distributed body weight unequally on the CFA-injected and contra lateral paws, which was measured by a weight balance changing instrument (Bio-medical, USA). The animals were tested in a box constructed to register the weight load exerted by the hind paws by means of force plates inserted in the floor. The mean weight bearing (unit in “g”) between the CFA-injected paw and the contra-lateral paw was determined in 10 seconds. The weight bearing test of all study animals was conducted at the same time intervals as the mechanical hyperalgesia test. All the results were expressed as mean±SD. One-way analysis of variance (ANOVA) followed by a multiple comparison test were applied among the groups, p<0.05 accepted as significant.

[2] = tested on: hyperalgesia induced by Freund's complete adjuvant (CFA) in rats; experiment: Von Frey filament test, CFA induced hyperalgesia in rats; format: in vivo, SD rats; settings: for Von Frey Filament Test Values (Mean ± SD), Baseline: pretreatment, n=8; for Von Frey Filament Test Values (Mean ± SD), 15 min: 15 min post treatment; for Von Frey Filament Test Values (Mean ± SD), 2 h: 2 h post treatment
Description: Compounds 46 and JK-02A were prepared according to the disclosure of US patent application No. US2008/0176920, and compound JK-02H was prepared according to Example 1. A repeat efficacy study was carried out on the same batch of animals with a single-dose treatment followed by a washing-out period. The 14 days in life studies included two stages: a single low dose treatment assessment on the 7th day and then a single high dose treatment test on the 14th day after CFA injection. On the 7th day after CFA injection, the rats were randomly assigned to respective groups using a computer generated randomization procedure based on the body weight and the baseline values of Von Frey and weight bearing test. Animals received corresponding single dose treatments (vehicle and 3 test articles) on the 7th and 14th days after CFA injection, respectively, and the effect of the test compounds were evaluated. Hyperalgesia of all the study animals was assessed following a single low dose treatment with the test articles on day 7, while a single high dose effect of the test article was evaluated on day 14. The mechanical hyperalgesia and weight bearing were measured on day 7 and day 14 after CFA injection, followed by administration of control or test articles. Von Frey filaments and weight bearing were measured on all the study animals at three time points on day 7, and four time points on day 14. An extra time point assessment was conducted on day 14, considering the strong analgesic effect of the test articles at a higher dose noticed during the test at the 3th time point. Mechanical hyperalgesia of the left hind paw was measured before and during the course of study in all animal groups by determining withdrawal thresholds to Von Frey filament (Bioseb, France). Increasing tensile force perpendicular to the plantar surface of the paw was applied to the filaments. The threshold for paw withdrawal was calculated by taking the average of 2-3 repeated stimuli (unit in “g”). On day 7, Von Frey Filament measurements were conducted three times, at the time points of pretreatment, 15 min and 2 hours post treatment. Following a one-week washing out period, on day 14 after CFA injection, Von Frey Filament tests were performed again four times post a single high dose administration. Rats treated with vehicle or high dose test articles were measured at the time points of pretreatment, 15 min, 2 and 5 hours post treatment. All the results were expressed as mean±SD. One-way analysis of variance (ANOVA) followed by a multiple comparison test were applied among the groups, p<0.05 accepted as significant.

[3] = Test of water solubility of the compounds
Description: At room temperature, about 0.1 g of each sample to be tested (solid materials should be ground as powder) was added to a 10 mL cylinder with a ground glass stopper. Water was gradually added. After each addition of 0.5 mL water, the resulting solution was stirred for 10 min for mixing, and was then visually examined for the presence of any undissolved sample. If there still exists undissolved sample or undissolved portions of the sample after 10 mL water was added, the test would be continued in a 100 mL cylinder.

[4] = day 7 after CFA, low dose groups (46 and JK-02A 10 mg/kg, JK-02H 5 mg/kg)
[5] = day 7 after CFA, single low dose i.v. (46 and JK-02A 10 mg/kg, JK-02H 5 mg/kg)
[6] = day 14 after CFA, high dose groups (46 and JK-02A 40 mg/kg, JK-02H 20 mg/kg)
[7] = day 14 after CFA, single high dose i.v. (46 and JK-02A 40 mg/kg, JK-02H 20 mg/kg)
[8] = day 14 after CFA, single high dose i.v. (46 and JK-02A 40 mg/kg, JK-02H 20 mg/kg), 5 h post treatment
[9] = individual animal, high dose i.v. (46 and JK-02A 40 mg/kg, JK-02H 20 mg/kg)
[10] = individual animal, low dose i.v. (46 and JK-02A 10 mg/kg, JK-02H 5 mg/kg)
[11] = individual animal, high dose i.v. (46 and JK-02A 40 mg/kg, JK-02H 20 mg/kg), two repeated stimuli
[12] = individual animal, low dose i.v. (46 and JK-02A 10 mg/kg, JK-02H 5 mg/kg), two repeated stimuli

CCCOc1ccc(O)c(F)c1C(=O)c1ccc(C(=O)N[C@@H]2CNC[C@H]2NC(=O)c2ccc3cn[nH]c3c2)cc1 [compound 46]
Weight Bearing Test Values (Mean ± SD), Baseline [1, 4]: 48.54 ± 7.73 g
Weight Bearing Test Values (Mean ± SD), 15 min [1, 5]: 44.76 ± 8.54 g
Weight Bearing Test Values (Mean ± SD), 2 h [1, 5]: 41.09 ± 8.58 g
Weight Bearing Test Values (Mean ± SD), Baseline [1, 6]: 46.73 ± 5.58 g
Weight Bearing Test Values (Mean ± SD), 15 min [1, 7]: 34.03 ± 5.67 g
Weight Bearing Test Values (Mean ± SD), 2 h [1, 7]: 44.46 ± 11.29 g
Weight Bearing Test Values (Mean ± SD), 5 h [1, 8]: 41.06 ± 6.98 g
Weight Bearing Values of Individual Animal, Day 14, 15 min, Left [1, 9]: 62.4 g and 64.0 g and 61.5 g and 63.7 g and 59.2 g and 39.7 g and 52.6 g and 68.4 g
Weight Bearing Values of Individual Animal, Day 14, 15 min, Right [1, 9]: 96.4 g and 104.7 g and 95.1 g and 95.7 g and 96.9 g and 71.9 g and 75.2 g and 107.8 g
Weight Bearing Values of Individual Animal, Day 14, 15 min, Δ [1, 9]: 34.0 g and 40.7 g and 33.6 g and 32.0 g and 37.7 g and 32.2 g and 22.6 g and 39.4 g
Weight Bearing Values of Individual Animal, Day 14, 2 h, Left [1, 9]: 59.9 g and 68.1 g and 65.7 g and 44.8 g and 56.2 g and 36.9 g and 65.4 g and 67.0 g
Weight Bearing Values of Individual Animal, Day 14, 2 h, Right [1, 9]: 107.1 g and 101.0 g and 112.2 g and 110.9 g and 98.5 g and 87.3 g and 94.8 g and 107.9 g
Weight Bearing Values of Individual Animal, Day 14, 2 h, Δ [1, 9]: 47.2 g and 32.9 g and 46.5 g and 66.1 g and 42.3 g and 50.4 g and 29.4 g and 40.9 g
Weight Bearing Values of Individual Animal, Day 14, 5 h, Left [1, 9]: 55.9 g and 34.5 g and 56.8 g and 58.2 g and 47.3 g and 31.3 g and 41.6 g and 73.0 g
Weight Bearing Values of Individual Animal, Day 14, 5 h, Right [1, 9]: 102.4 g and 85.3 g and 101.8 g and 88.4 g and 90.0 g and 66.5 g and 76.3 g and 116.4 g
Weight Bearing Values of Individual Animal, Day 14, 5 h, Δ [1, 9]: 46.5 g and 50.8 g and 45.0 g and 30.2 g and 42.7 g and 35.2 g and 34.7 g and 43.4 g
Weight Bearing Values of Individual Animal, Day 7, 15 min, Left [1, 10]: 47.4 g and 40.2 g and 67.4 g and 60.4 g and 40.3 g and 39.0 g and 24.3 g and 58.1 g
Weight Bearing Values of Individual Animal, Day 7, 15 min, Right [1, 10]: 93.5 g and 94.1 g and 110.9 g and 89.1 g and 91.2 g and 81.7 g and 62.7 g and 112.0 g
Weight Bearing Values of Individual Animal, Day 7, 15 min, Δ [1, 10]: 46.1 g and 53.9 g (2×) and 43.5 g and 28.7 g and 50.9 g and 42.7 g and 38.4 g
Weight Bearing Values of Individual Animal, Day 7, 2 h, Left [1, 10]: 48.5 g and 39.0 g and 65.0 g and 66.3 g and 48.4 g and 43.4 g and 38.0 g and 54.8 g
Weight Bearing Values of Individual Animal, Day 7, 2 h, Right [1, 10]: 91.5 g and 81.8 g and 102.9 g and 97.7 g and 80.7 g and 82.3 g and 81.5 g and 113.7 g
Weight Bearing Values of Individual Animal, Day 7, 2 h, Δ [1, 10]: 43.0 g and 42.8 g and 37.9 g and 31.4 g and 32.3 g and 38.9 g and 43.5 g and 58.9 g
First Baseline, Balance Left, individual animal ([1]; individual animal, pretreatment day 7, left (CFA-injected) hind paw): 31.3 g and 27.8 g and 41.8 g and 63.2 g and 73.9 g and 49.6 g and 33.9 g and 60.4 g
First Baseline, Balance Right, individual animal ([1]; individual animal, pretreatment day 7, right hind paw): 83.6 g and 87.0 g and 91.8 g and 105.0 g and 114.0 g and 102.9 g and 71.5 g and 114.4 g
First Baseline, Balance Δ, individual animal ([1]; individual animal, pretreatment day 7, right minus left): 52.3 g and 59.2 g and 50.0 g and 41.8 g and 40.1 g and 53.3 g and 37.6 g and 54.0 g
Second Baseline, Balance Left, individual animal ([1]; individual animal, pretreatment day 14, left (CFA-injected) hind paw): 61.3 g and 45.0 g and 70.0 g and 51.2 g and 34.7 g and 24.8 g and 43.5 g and 65.5 g
Second Baseline, Balance Right, individual animal ([1]; individual animal, pretreatment day 14, right hind paw): 115.3 g and 95.2 g and 119.5 g and 104.5 g and 76.6 g and 67.1 g and 84.3 g and 107.3 g
Second Baseline, Balance Δ, individual animal ([1]; individual animal, pretreatment day 14, right minus left): 54.0 g and 50.2 g and 49.5 g and 53.3 g and 41.9 g and 42.3 g and 40.8 g and 41.8 g
Von Frey Filament Test Values (Mean ± SD), Baseline [2, 4]: 6.81 ± 0.74 g
Von Frey Filament Test Values (Mean ± SD), 15 min [2, 5]: 7.12 ± 1.20 g
Von Frey Filament Test Values (Mean ± SD), 2 h [2, 5]: 7.69 ± 1.59 g
Von Frey Filament Test Values (Mean ± SD), Baseline [2, 6]: 7.01 ± 0.75 g
Von Frey Filament Test Values (Mean ± SD), 15 min [2, 7]: 8.17 ± 1.50 g
Von Frey Filament Test Values (Mean ± SD), 2 h [2, 7]: 8.04 ± 1.83 g
Von Frey Filament Test Values (Mean ± SD), 5 h [2, 8]: 7.66 ± 1.72 g
Von Frey Values of Individual Animal, Day 14, 15 min [2, 11]: 7.3 g and 9.0 g and 8.3 g and 7.5 g and 9.6 g (2×) and 10.8 g and 7.0 g and 6.7 g and 8.2 g (2×) and 5.5 g and 5.6 g and 8.0 g and 10.5 g and 8.9 g
Von Frey Values of Individual Animal, Day 14, 2 h [2, 11]: 5.8 g and 7.3 g and 8.2 g and 7.0 g and 6.2 g and 7.1 g and 8.9 g (2×) and 7.2 g and 5.9 g (2×) and 8.5 g and 9.7 g and 8.8 g and 11.1 g and 12.1 g
Von Frey Values of Individual Animal, Day 14, 5 h [2, 11]: 6.6 g (2×) and 7.5 g (2×) and 7.1 g and 6.1 g and 5.9 g and 6.3 g and 8.8 g and 6.8 g and 5.8 g and 7.0 g and 8.7 g and 9.9 g and 11.7 g and 10.3 g
Von Frey Values of Individual Animal, Day 7, 15 min [2, 12]: 7.6 g (2×) and 7.5 g (2×) and 6.8 g and 6.6 g and 5.5 g and 8.2 g and 5.9 g and 7.9 g and 4.6 g and 5.3 g and 9.0 g and 8.9 g and 7.8 g and 7.2 g
Von Frey Values of Individual Animal, Day 7, 2 h [2, 12]: 9.3 g (2×) and 8.8 g and 9.4 g (2×) and 8.6 g and 6.5 g (3×) and 5.8 g and 5.9 g (2×) and 7.4 g and 5.5 g and 8.4 g and 9.8 g
First Baseline, Von Frey, individual animal ([2]; individual animal, pretreatment day 7, two repeated stimuli per animal): 7.4 g and 5.4 g and 6.2 g and 6.1 g (2×) and 6.4 g and 6.3 g and 5.5 g and 7.5 g and 7.0 g and 7.3 g and 6.7 g and 7.6 g (2×) and 8.1 g and 7.7 g
Second Baseline, Von Frey, individual animal ([2]; individual animal, pretreatment day 14 after washing-out, two repeated stimuli per animal): 7.6 g (2×) and 7.7 g and 6.4 g and 6.2 g (2×) and 5.5 g and 5.7 g and 7.1 g and 7.9 g and 7.0 g and 7.3 g and 7.2 g (2×) and 8.1 g and 7.5 g
Volume of added water ([3]; about 0.1 g sample, room temperature, water added until dissolved): 66.5 mL
solubility ([3]; water, thermodynamic from solid): 1500 µg/mL (≈ 2750 µM)
